Structures can show the parent of a compound that is named as a salt. Where two headings read alike, the source gives them in different places.
Columns and labels:
[1] = molecular target: neuronal nicotinic cholinergic channel receptor; experiment: [3H]-cytisine binding to neuronal nicotinic cholinergic channel receptors, crude synaptic membranes from whole rat brain
Protocol: Binding of [^3 H]-cytisine ([^3 H]-CYT) to nicotinic receptors was accomplished using crude synaptic membrane preparations from whole rat brain (Pabreza et al., Molecular Pharmacol., 1990, 39:9). Washed membranes were stored at -80° C. prior to use. Frozen aliquots were slowly thawed and resuspended in 20 volumes of buffer (containing: 120 mM NaCl, 5 mM KCl, 2 mM MgCl2, 2 mM CaCl2 and 50 mM Tris-Cl, pH 7.4 @4° C.). After centrifuging at 20,000×g for 15 minutes, the pellets were resuspended in 30 volumes of buffer. Homogenate (containing 125-150 μg protein) was added to triplicate tubes containing concentrations of test compound and [^3 H]-CYT (1.25 nM) in a final volume of 500 μL. Samples were incubated for 60 minutes at 4° C., then rapidly filtered through Whatman GF/B filters presoaked in 0.5% polyethylimine using 3×4 mL of ice-cold buffer. The filters are counted in 4 mL of Ecolume® (ICN).

Male CD-1 mice = experiment: Analgesia testing, automated hot-plate (55° C.); type: in vivo, mouse; conditions: latency to tenth jump; morphine at 12, Example 3 at 19 umol/kg
Protocol: Analgesia was measured using an automated hot-plate analgesia monitor (model #AHP16AN, Omnitech Electronics, Inc., Columbus, Ohio). The temperature of the hot-plate was maintained at 55° C. Male CD-1 mice (Charles River, Portage, Mich.) weighing 30 to 35 g were used for all testing. Mice were placed on the hot-plate and the latency to jump (i.e., first 10 jumps) was recorded. Mice were removed from the apparatus either after ten jumps were made or a maximally-allowed time of 240 sec elapsed, whichever occurred first. The design of the apparatus allowed for testing of several animals (e.g., 8) at once. The latency (sec) until the tenth jump was used for statistical analysis. Data (Table 2) were statistically evaluated with ANOVA (StatView II™ program, Abacus Concepts, Inc., Berkeley, Calif.) and compared to the reference standard analgesic morphine.

[2] = system: cortical muscarinic receptors; conditions: cited from earlier work
[3] = system: cardiac muscarinic receptors; conditions: cited from earlier work
CD1 mice = experiment: Elevated plus-maze, mouse (anxiolytic activity); type: in vivo; conditions: for Mouse EPM, improvement in performance at the dose range tested: doses in brackets, time in open arms, 5 min test
Text: (§1) The elevated plus-maze is a conflict test that probes anxiolytic activity of test compounds (Lister, Psychopharmacology, 1987, 92:180). It is based on the fact that exposure of an animal to an elevated open arm leads to an avoidance response considerably stronger than that evoked by exposure to an enclosed arm.
The apparatus required to perform this test in mice is made of plywood and consists of two open arms (17×8 cm) and two enclosed arms (17×8×15 cm) extending from a central platform (8×8 cm). It is mounted on a plywood base rising 39 cm above the floor. Mice are released on the central platform and the time spent in the open and enclosed arms is recorded during a 5 minute test period. The test compounds were administered to CD1 mice 15 minutes before the test.

male Wistar rats = experiment: Elevated plus-maze, rat (anxiolytic activity); type: in vivo; conditions: doses in brackets; time in open arms
Text: as §1
The same protocol was applied in rats (male Wistar strain), but a larger maze was used (open arms 50×10 cm, enclosed arms 50×10×40 cm) raised 50 cm above the floor.

parietotemporal cortex = parietotemporal cortex of humans; cited from earlier work
rats = conditions: acutely- and chronically-administered, rats incl. aged; cited from earlier work
[4] = cited from earlier work
cigarette smokers = conditions: double-blind studies; cited from earlier work
nicotinic receptors = conditions: chronic nicotine administration; cited from earlier work
[5] = in vivo; cited from earlier work
[6] = [3H]-cytisine (1.25 nM), whole rat brain membranes, 4° C., 60 min

**Q.** Which Ki [1, 6] does the source give for `CN1CCC[C@H]1COc1cccc([N+](=O)[O-])c1` [Example 2, 1-Methyl-2(S)-(3-(nitro)phenoxymethyl)pyrrolidine hydrochloride] here?
**A.** 9 nM

**Q.** Which Ki [1, 6] does the source give for `c1ccc(OC[C@@H]2CCCN2)cc1` [Example 21, 2(S)-(phenoxymethyl)pyrrolidine hydrochloride] here?
**A.** 108 nM

**Q.** With `CN1CCC[C@H]1COc1ccc(Cl)c(Cl)c1` [Example 16, 2(S)-(3,4-Dichlorophenoxymethyl)-1-methylpyrrolidine hydrochloride] as the compound, how does the Ki [1, 6] read?
**A.** 112 nM

**Q.** With `Fc1ccc(OC[C@@H]2CCCN2)cc1F` [Example 13, 2(S)-(3,4-Difluorophenoxymethyl)pyrrolidine hydrochloride] as the compound, how does the Ki [1, 6] read?
**A.** 17.5 nM

**Q.** For `O=[N+]([O-])c1cccc(OC[C@@H]2CCN2)c1` [Example 22, 2(S)-(3-(nitro)phenoxymethyl)azetidine methanesulfonate], which Ki [1, 6] is on record?
**A.** 6.8 nM

**Q.** Which Ki [1, 6] does the source give for `CN1CCC[C@H]1COc1cccc(F)c1` [Example 6, 2(S)-(3-Fluorophenoxymethyl)-1-methyl-pyrrolidine hydrochloride] here?
**A.** 5.1 nM

**Q.** For `Fc1cccc(OC[C@@H]2CCCN2)c1F` [Example 11, 2(S)-(2,3-Difluorophenoxymethyl)pyrrolidine hydrochloride], which Ki [1, 6] is on record?
**A.** 74.3 nM

**Q.** Which Ki [1, 6] does the source give for `CN1CC[C@@H]1COc1cccc([N+](=O)[O-])c1` [Example 23, (R)-1-methyl-2-(3-(nitro)phenoxymethyl)azetidine hydrochloride] here?
**A.** 29 nM

**Q.** For `CC(=O)Nc1cccc(OC[C@@H]2CCCN2)c1` [Example 17, (S)-2-(3-(acetamido)phenoxymethyl)pyrrolidine hydrochloride], which Ki [1, 6] is on record?
**A.** 142 nM

**Q.** For `Fc1cccc(OC[C@@H]2CCCN2)c1` [Example 5, 2(S)-(3-Fluorophenoxymethyl)-pyrrolidine hydrochloride], which Ki [1, 6] is on record?
**A.** 17.2 nM

**Q.** For `CN1CCC[C@H]1COc1ccc(F)c(F)c1` [Example 14, 2(S)-(3,4-Difluorophenoxymethyl)-1-methylpyrrolidine hydrochloride], which Ki [1, 6] is on record?
**A.** 18 nM

**Q.** For `CN1CCC[C@H]1COc1cccc(F)c1F` [Example 12, 2(S)-(2,3-Difluorophenoxymethyl)-1-methylpyrrolidine hydrochloride], which Ki [1, 6] is on record?
**A.** 81.4 nM

**Q.** What does the source list for `Cl.O=[N+]([O-])c1cccc(OC[C@H]2CCCN2)c1` [Example 3, 2(R)-(3-(nitro)phenoxymethyl)pyrrolidine hydrochloride]?
**A.** Percent change from saline (Male CD-1 mice): 60.7%; Ki [1, 6]: 2.5 nM

**Q.** For `CCN1C(=O)CC2(CCN(C)CC2)C1=O` [RS-86], which “Agonism at cortical muscarinic receptors” value [2] is on record?
**A.** partial agonist

**Q.** And the “Potency and selectivity for CNS receptors” value [2]?
**A.** poor potency and lack of selectivity for CNS receptors

**Q.** What about the “Agonism at cardiac muscarinic receptors” value [3] of the same compound?
**A.** full agonist

**Q.** With `Fc1cc(F)cc(OC[C@@H]2CCCN2)c1` [Example 7, 2(S)-(3,5-Difluorophenoxymethyl)pyrrolidine hydrochloride] as the compound, how does the Ki [1, 6] read?
**A.** 22.3 nM

**Q.** Which Ki [1, 6] does the source give for `CN1CCC[C@H]1COc1cccc(C#N)c1` [Example 19, (S)-2-(3-cyanophenoxymethyl)-1-methylpyrrolidine hydrochloride] here?
**A.** 64 nM

**Q.** What does the source list for `CN1CCCC1c1cccnc1` (single isomer, unassigned; (-)) [(-)-nicotine, reference compound]?
**A.** Increase in time spent in the open arms of the maze vs saline (CD1 mice; 0.62 and 1.9 μmol/kg, p<0.05, 15 minutes before test): significant increase; Mouse EPM, improvement in performance at the dose range tested (CD1 mice): significant [0.19-0.62]; Rat EPM, improvement in performance at the dose range tested (male Wistar rats): significant [1.9]; Ki [1]: […]

**Q.** For `CN1CC[C@]23c4c5ccc(O)c4O[C@H]2[C@@H](O)C=C[C@H]3[C@H]1C5` [Morphine, reference compound], which “Percent change from saline” value (Male CD-1 mice) is on record?
**A.** 257%

**Q.** Which Ki [1, 6] does the source give for `N#Cc1cccc(OC[C@@H]2CCCN2)c1` [Example 18, (S)-2-(3-cyanophenoxymethyl)pyrrolidine hydrochloride] here?
**A.** 18 nM

**Q.** With `Cl.O=[N+]([O-])c1cccc(OC[C@@H]2CCCN2)c1` [Example 1, 2(S)-(3-(Nitro)phenoxymethyl)pyrrolidine hydrochloride] as the compound, how does the “Mouse EPM, improvement in performance at the dose range tested” value (CD1 mice) read?
**A.** significant [0.62-1.9]

**Q.** And the “Rat EPM, improvement in performance at the dose range tested” value (male Wistar rats)?
**A.** significant [0.19, 6.2]

**Q.** And the Ki [1, 6]?
**A.** 2.9 nM

**Q.** For `CN1CCC[C@@H]1COc1cccc([N+](=O)[O-])c1` [Example 4, (R)-1-Methyl-2-(3-(nitro)phenoxymethyl)pyrrolidine], which Ki [1, 6] is on record?
**A.** 132 nM

**Q.** With `CN1CCC[C@H]1COc1cc(F)cc(F)c1` [Example 8, 2(S)-(3,5-Difluorophenoxymethyl)-1-methyl-pyrrolidine hydrochloride] as the compound, how does the Ki [1, 6] read?
**A.** 15.7 nM

**Q.** Which Ki [1, 6] does the source give for `CN1CCC[C@H]1COc1cccc(Cl)c1` [Example 15, 2(S)-(3-Chlorophenoxymethyl)-1-methylpyrrolidine hydrochloride] here?
**A.** 37.7 nM

**Q.** For `CNC1(C)C2CCC(C2)C1(C)C` (stereo not drawn) [mecamylamine], which “Effect on resting cortical perfusion” value (parietotemporal cortex) is on record?
**A.** reduces resting cortical perfusion

**Q.** Which results are given for `CN1CCC[C@H]1c1cccnc1` [nicotine]?
**A.** Effect on cognitive function (rats): enhances cognitive function in rats; Oral bioavailability [4]: poor oral bioavailability; Suppressing or preventing signs and symptoms of withdrawal vs placebo (cigarette smokers): far superior to a placebo; Up-regulation of the number of receptors (nicotinic receptors): 50-100%; Anxiolytic properties [5]: anxiolytic properties

**Q.** With `Fc1cccc(OC[C@H]2CCCN2)c1` [Example 9, 2(R)-(3-Fluorophenoxymethyl)-pyrrolidine hydrochloride] as the compound, how does the Ki [1, 6] read?
**A.** 11.6 nM

**Q.** With `CN1CCC[C@@H]1COc1cccc(F)c1` [Example 10, 2(R)-(3-Fluorophenoxymethyl)-1-methylpyrrolidine hydrochloride] as the compound, how does the Ki [1, 6] read?
**A.** 90.7 nM
